The source of these data is patent US6835382B2, “Ii peptide therapeutics to enhance antigen presentation” (University of Massachusetts, priority 1996, dated 2004).

The experiment deals with murine E^d MHC class II allele. In words: simultaneous assay, E^d allele (A20 APC, G28.C9 T hybridoma, HEL106-116; HT-2 [3H]TdR readout). The class given is cell-based. The conditions noted are these: simultaneous assay, Table 14, versus AE114 / AE301; E^d and E^k. On the procedure: Examples 1-4 (Tables 1-18) will be briefly considered in order to establish the concept of tolerance discussed above. These examples describe experimental results observed in the so-called “simultaneous” assay. In the simultaneous assay four principle components are cultured together for a 24 hour period. […] The degree of stimulation of that second, indicator cell by the interleukins which had been released from the activated T cell hybridoma in the primary culture is measured by quantitating tritiated thymidine deoxyribose {[^3H]TdR} uptake into the DNA of the HT-2 indicator cells of that second culture.
In the “simultaneous assay” the four components of the assay are cultured together for a 24 h period. […] The degree of stimulation of that second, indicator cell by the interleukins which had been released from the activated T cell hybridoma in the primary culture is measured by quantitating tritiated thymidine deoxyribose {[^3H]TdR} uptake into the DNA of the HT-2 indicator cells of that second culture. […]

Ac-LR (mL) KLPK-NH2 [AE302]: the “reduction in activity on substitution of 3-methionine by N-methyl leucine” value is listed as 50-70%.
